In brackets after ≈: the same amount, converted by molar mass.
Tests used:
Format in all cases: cell-based
Escherichia coli NIHJ = experiment: MIC, plate method, standard strains; settings: Table 3, standard strain; unit assumed
Method: (§1) The minimum inhibitory concentration (MIC) was determined by the plate method disclosed in "Chemotherapy" (Japan), Vol. 16, (1968), pages 98-99. The culture medium used was a Heart infusion agar (pH 7.4). The number of the cells per plate used in the inoculum was 10^4 (10^6 cells/ml).

[1] = tested on: Staphylococcus aureus 209p; experiment: MIC, plate method, standard strains; settings: Table 3, standard strain, Heart infusion agar pH 7.4; unit assumed
Method: as §1

Proteus vulgaris 3027 = experiment: MIC, plate method, standard strains; settings: Table 3, standard strain; unit assumed
Method: as §1

Pseudomonas aeruginosa = experiment: MIC against clinical isolates; settings: unit assumed
Klebsiella pneumoniae [2] = experiment: MIC, plate method, standard strains; settings: Table 3, standard strain; unit assumed
Method: as §1

[3] = tested on: Pseudomonas aeruginosa I.F.O.; experiment: MIC, plate method, standard strains; settings: Table 3, standard strain; unit assumed
Method: as §1

Staphylococcus aureus = experiment: MIC against clinical isolates; settings: Table 5-1, clinical isolate; unit assumed
Escherichia coli = experiment: MIC against clinical isolates; settings: Table 5-2, clinical isolate; unit assumed
Klebsiella pneumoniae [4] = experiment: MIC against clinical isolates; settings: Table 5-4, clinical isolate; unit assumed
Shigella flexneri = experiment: MIC against clinical isolates; settings: Table 5-5, clinical isolate; unit assumed
Method: as §1
(§2) MIC was determined in the same manner as in the preceding paragraph (1).

Shigella sonnei = experiment: MIC against clinical isolates; settings: Table 5-5, clinical isolate; unit assumed
Method: as §1, §2

CC1(C)SC2C(NC(=O)C(NC(=O)N3CCN(C4CCCC4)C(=O)C3)c3ccccc3)C(=O)N2C1C(=O)O (single isomer, unassigned) [Compound 32]
MIC Esche--richin coil NIHJ (Escherichia coli NIHJ): < 1.57 µg/mL | MIC Staphylococcus aureus 209p [1]: < 1.57 µg/mL

CC(=O)OCCN1CCN(C(=O)NC(C(=O)NC2C(=O)N3C2SC(C)(C)C3C(=O)O)c2ccccc2)C(=O)C1=O (single isomer, unassigned) [Compound 41]
MIC Esche--richin coil NIHJ (Escherichia coli NIHJ): < 1.57 µg/mL | MIC Proteus vulgaris 3027 (Proteus vulgaris 3027): < 1.57 µg/mL | MIC Staphylococcus aureus 209p [1]: < 1.57 µg/mL

C=CCN1CCN(C(=O)NC(C(=O)NC2C(=O)N3C2SC(C)(C)C3C(=O)O)c2ccccc2)C(=O)C1=O (single isomer, unassigned) [Compound 42]
MIC Esche--richin coil NIHJ (Escherichia coli NIHJ): < 1.57 µg/mL | MIC Proteus vulgaris 3027 (Proteus vulgaris 3027): < 1.57 µg/mL

CC1(C)SC2C(NC(=O)C(NC(=O)N3CCN(c4ccccc4)C(=O)C3=O)c3ccccc3)C(=O)N2C1C(=O)O (single isomer, unassigned) [Compound 43]
MIC Esche--richin coil NIHJ (Escherichia coli NIHJ): < 1.57 µg/mL | MIC Proteus vulgaris 3027 (Proteus vulgaris 3027): < 1.57 µg/mL | MIC Staphylococcus aureus 209p [1]: < 1.57 µg/mL

CC(=O)OCC1=C(C(=O)O)N2C(=O)C(NC(=O)C(NC(=O)N3CCN(C)C(=O)C3=O)c3ccccc3)C2SC1 (single isomer, unassigned) [Compound No. 60]
MIC Pseudomonas aeruginosa GN4 (Pseudomonas aeruginosa; Table 6-3, clinical isolate): 50 µg/mL (≈ 89.4 µM) | MIC Pseudomonas aeruginosa GN 82 (Pseudomonas aeruginosa; Table 6-3, clinical isolate): 50 µg/mL (≈ 89.4 µM) | MIC Pseudomonas aeruginosa GN 376 (Pseudomonas aeruginosa; Table 6-3, clinical isolate): 50 µg/mL (≈ 89.4 µM) | MIC Pseudomonas aeruginosa GN 2987 (Pseudomonas aeruginosa; Table 6-3, clinical isolate): 50 µg/mL (≈ 89.4 µM)

Cc1nnc(SCC2=C(C(=O)O)N3C(=O)C(NC(=O)C(NC(=O)N4CCN(C)C(=O)C4=O)c4ccccc4)C3SC2)s1 (single isomer, unassigned) [Compound No. 62]
MIC Pseudomonas aeruginosa GN4 (Pseudomonas aeruginosa; Table 6-3, clinical isolate): 100 µg/mL (≈ 158 µM) | MIC Pseudomonas aeruginosa GN 82 (Pseudomonas aeruginosa; Table 6-3, clinical isolate): 100 µg/mL (≈ 158 µM) | MIC Pseudomonas aeruginosa GN 376 (Pseudomonas aeruginosa; Table 6-3, clinical isolate): 100 µg/mL (≈ 158 µM) | MIC Pseudomonas aeruginosa GN 2565 (Pseudomonas aeruginosa; Table 6-3, clinical isolate): 100 µg/mL (≈ 158 µM)

CN1CCN(C(=O)NC(C(=O)NC2C(=O)N3C2SC(C)(C)C3C(=O)O)c2ccc(O)cc2)C(=O)C1=O (single isomer, unassigned) [compound 48]
MIC Esche--richin coil NIHJ (Escherichia coli NIHJ): < 0.4 µg/mL | MIC Proteus vulgaris 3027 (Proteus vulgaris 3027): < 0.4 µg/mL | MIC Staphylococcus aureus 209p [1]: < 0.4 µg/mL

CN1CCN(C(=O)N[C@@H](C(=O)N[C@@H]2C(=O)N3[C@@H]2SC(C)(C)[C@@H]3C(=O)OC2OC(=O)c3ccccc32)c2ccccc2)C(=O)C1=O (single isomer, unassigned) [compound 49]
MIC Staphylococcus aureus 209p [1]: < 0.4 µg/mL

COCOC(=O)C1N2C(=O)C(NC(=O)C(NC(=O)N3CCN(C)C(=O)C3=O)c3ccccc3)C2SC1(C)C (single isomer, unassigned) [compound 50]
MIC Esche--richin coil NIHJ (Escherichia coli NIHJ): < 0.79 µg/mL | MIC Proteus vulgaris 3027 (Proteus vulgaris 3027): < 0.79 µg/mL | MIC Staphylococcus aureus 209p [1]: < 0.79 µg/mL

CCCCCCCCN1CCN(C(=O)NC(C(=O)NC2C(=O)N3C2SC(C)(C)C3C(=O)OCOC)c2ccccc2)C(=O)C1=O (single isomer, unassigned) [compound 51]
MIC Esche--richin coil NIHJ (Escherichia coli NIHJ): < 0.4 µg/mL | MIC Klebsiella pneumoniae (Klebsiella pneumoniae [2]): < 0.4 µg/mL | MIC Proteus vulgaris 3027 (Proteus vulgaris 3027): < 0.4 µg/mL | MIC Staphylococcus aureus 209p [1]: < 0.4 µg/mL

CN1CCN(C(=O)NC(C(=O)NC2C(=O)N3C2SC(C)(C)C3C(=O)OCCN2CCCCC2)c2ccccc2)C(=O)C1=O (single isomer, unassigned) [compound 53]
MIC Esche--richin coil NIHJ (Escherichia coli NIHJ): < 0.4 µg/mL

CC1(C)S[C@@H]2[C@H](NC(=O)[C@H](NC(=O)N3CCN(C(=O)c4ccc(Cl)cc4)CC3=O)c3ccccc3)C(=O)N2[C@H]1C(=O)O [Compound 8]
MIC Proteus vulgaris 3027 (Proteus vulgaris 3027): 3.13 µg/mL (≈ 5.1 µM) | MIC Pseudomonas aeruginosa I.F.C [3]: 100 µg/mL (≈ 163 µM)

CCCCCCN1CCN(C(=O)N[C@@H](C(=O)N[C@@H]2C(=O)N3[C@@H]2SC(C)(C)[C@@H]3C(=O)O)c2ccccc2)C(=O)C1 [Compound 13]
MIC Esche--richin coil NIHJ (Escherichia coli NIHJ): < 1.57 µg/mL | MIC Klebsiella pneumoniae (Klebsiella pneumoniae [2]): < 1.57 µg/mL | MIC Proteus vulgaris 3027 (Proteus vulgaris 3027): < 1.57 µg/mL | MIC Staphylococcus aureus 209p [1]: < 1.57 µg/mL | MIC Staphylococcus aureus F-1 (Staphylococcus aureus): 12.5 µg/mL (≈ 22.3 µM) | MIC Staphylococcus aureus F-2 (Staphylococcus aureus): 1.57 µg/mL (≈ 2.81 µM) | MIC Staphylococcus aureus F-4 (Staphylococcus aureus): 6.25 µg/mL (≈ 11.2 µM) | MIC Staphylococcus aureus MS 8588 (Staphylococcus aureus): 3.13 µg/mL (≈ 5.59 µM) | MIC Staphylococcus aureus MS 8596 (Staphylococcus aureus): 3.13 µg/mL (≈ 5.59 µM) | MIC Staphylococcus aureus MS 8684 (Staphylococcus aureus): 3.13 µg/mL (≈ 5.59 µM) | MIC Staphylococcus aureus MS 8713 (Staphylococcus aureus): 3.13 µg/mL (≈ 5.59 µM) | MIC Escherichia coli GN 3435 (Escherichia coli): 3.13 µg/mL (≈ 5.59 µM) | MIC Escherichia coli GN 3452 (Escherichia coli): 3.13 µg/mL (≈ 5.59 µM) | MIC Escherichia coli GN 3481 (Escherichia coli): 6.25 µg/mL (≈ 11.2 µM) | MIC Escherichia coli K-1 (Escherichia coli): 3.13 µg/mL (≈ 5.59 µM) | MIC Escherichia coli K-2 (Escherichia coli): 6.25 µg/mL (≈ 11.2 µM) | MIC Escherichia coli K-4 (Escherichia coli): 6.25 µg/mL (≈ 11.2 µM) | MIC Pseudomonas aeruginosa GN 2987 (Pseudomonas aeruginosa; Table 5-3, clinical isolate): 12.5 µg/mL (≈ 22.3 µM) | MIC Klebsiella pneumoniae GN 917 (Klebsiella pneumoniae [4]): 12.5 µg/mL (≈ 22.3 µM) | MIC Klebsiella pneumoniae GN 3850 (Klebsiella pneumoniae [4]): 6.25 µg/mL (≈ 11.2 µM) | MIC Shigella flexneri JS 11215 (Shigella flexneri): 12.5 µg/mL (≈ 22.3 µM) | MIC Shigella flexneri JS 11839 (Shigella flexneri): 1.57 µg/mL (≈ 2.81 µM) | MIC Shigella sonnei JS 11232 (Shigella sonnei): 12.5 µg/mL (≈ 22.3 µM) | MIC Shigella sonnei JS 11755 (Shigella sonnei): 3.13 µg/mL (≈ 5.59 µM)
